Data published in article PMC10373199 (ACS Omega, 2023).
Converted amounts (≈) assume the structure as drawn. Like-named read-outs stand apart in the source and are kept apart here. Marks after values point to notes of the source that are not given here.

Legend:
Ishikawa cells = experiment: AlkP activity in Ishikawa cells; type: cell-based, human; conditions: 72 h, DMSO set to 1
60 NCI tumor cell lines = experiment: NCI one-dose screen, mean over 60 tumor cell lines; type: cell-based; conditions: Homo sapiens, read-out: mean growth inhibition (%)
MCF-7 = experiment: NCI one-dose screen, MCF-7; type: cell-based; conditions: Homo sapiens, MCF7, read-out: growth inhibition on MCF-7 (%), 10 μM
60 different cell lines = experiment: NCI five-dose screen, mean/median over 60 cell lines; type: cell-based; conditions: Homo sapiens
CCRF-CEM = experiment: NCI five-dose screen, CCRF-CEM; type: cell-based; conditions: Homo sapiens
HL-60 (TB) = experiment: NCI five-dose screen, HL-60; type: cell-based; conditions: Homo sapiens
K-562 = experiment: NCI five-dose screen, K-562; type: cell-based; conditions: Homo sapiens, K562
MOLT-4 = experiment: NCI five-dose screen, MOLT-4; type: cell-based; conditions: Homo sapiens
RPMI-8226 = experiment: NCI five-dose screen, RPMI-8226; type: cell-based; conditions: Homo sapiens
SR = experiment: NCI five-dose screen, SR; type: cell-based; conditions: Homo sapiens
A549/ATCC = experiment: NCI five-dose screen, A549/ATCC; type: cell-based; conditions: Homo sapiens
EKVX = experiment: NCI five-dose screen, EKVX; type: cell-based; conditions: Homo sapiens
HOP-62 = experiment: NCI five-dose screen, HOP-62; type: cell-based; conditions: Homo sapiens
HOP-92 = experiment: NCI five-dose screen, HOP-92; type: cell-based; conditions: Homo sapiens
NCI-H226 = experiment: NCI five-dose screen, NCI-H226; type: cell-based; conditions: Homo sapiens
NCI-H23 = experiment: NCI five-dose screen, NCI-H23; type: cell-based; conditions: Homo sapiens
NCI-H322M = experiment: NCI five-dose screen, NCI-H322M; type: cell-based; conditions: Homo sapiens
NCI-H460 = experiment: NCI five-dose screen, NCI-H460; type: cell-based; conditions: Homo sapiens
NCI-H522 = experiment: NCI five-dose screen, NCI-H522; type: cell-based; conditions: Homo sapiens
COLO 205 = experiment: NCI five-dose screen, COLO 205; type: cell-based; conditions: Homo sapiens
HCC-2998 = experiment: NCI five-dose screen, HCC-2998; type: cell-based; conditions: Homo sapiens
HCT-116 = experiment: NCI five-dose screen, HCT-116; type: cell-based; conditions: Homo sapiens
HCT-15 = experiment: NCI five-dose screen, HCT-15; type: cell-based; conditions: Homo sapiens
HT29 = experiment: NCI five-dose screen, HT29; type: cell-based; conditions: Homo sapiens, HT-29
KM12 = experiment: NCI five-dose screen, KM12; type: cell-based; conditions: Homo sapiens
SW-620 = experiment: NCI five-dose screen, SW-620; type: cell-based; conditions: Homo sapiens
SF-268 = experiment: NCI five-dose screen, SF-268; type: cell-based; conditions: Homo sapiens
SF-295 = experiment: NCI five-dose screen, SF-295; type: cell-based; conditions: Homo sapiens
SF-539 = experiment: NCI five-dose screen, SF-539; type: cell-based; conditions: Homo sapiens
SNB-19 = experiment: NCI five-dose screen, SNB-19; type: cell-based; conditions: Homo sapiens
SNB-75 = experiment: NCI five-dose screen, SNB-75; type: cell-based; conditions: Homo sapiens
U251 = experiment: NCI five-dose screen, U251; type: cell-based; conditions: Homo sapiens, U-251
LOX IMVI = experiment: NCI five-dose screen, LOX IMVI; type: cell-based; conditions: Homo sapiens
MALME-3M = experiment: NCI five-dose screen, MALME-3M; type: cell-based; conditions: Homo sapiens
M14 = experiment: NCI five-dose screen, M14; type: cell-based; conditions: Homo sapiens
MDA-MB-435 = experiment: NCI five-dose screen, MDA-MB-435; type: cell-based; conditions: Homo sapiens
SK-MEL-2 = experiment: NCI five-dose screen, SK-MEL-2; type: cell-based; conditions: Homo sapiens
SK-MEL-28 = experiment: NCI five-dose screen, SK-MEL-28; type: cell-based; conditions: Homo sapiens
SK-MEL-5 = experiment: NCI five-dose screen, SK-MEL-5; type: cell-based; conditions: Homo sapiens
UACC-257 = experiment: NCI five-dose screen, UACC-257; type: cell-based; conditions: Homo sapiens
UACC-62 = experiment: NCI five-dose screen, UACC-62; type: cell-based; conditions: Homo sapiens
IGROV1 = experiment: NCI five-dose screen, IGROV1; type: cell-based; conditions: Homo sapiens, IGROV-1
OVCAR-3 = experiment: NCI five-dose screen, OVCAR-3; type: cell-based; conditions: Homo sapiens
OVCAR-4 = experiment: NCI five-dose screen, OVCAR-4; type: cell-based; conditions: Homo sapiens
OVCAR-5 = experiment: NCI five-dose screen, OVCAR-5; type: cell-based; conditions: Homo sapiens
OVCAR-8 = experiment: NCI five-dose screen, OVCAR-8; type: cell-based; conditions: Homo sapiens
NCI/ADR-RES = experiment: NCI five-dose screen, NCI/ADR-RES; type: cell-based; conditions: Homo sapiens
SK-OV-3 = experiment: NCI five-dose screen, SK-OV-3; type: cell-based; conditions: Homo sapiens
786–0 = experiment: NCI five-dose screen, 786–0; type: cell-based; conditions: Homo sapiens
A498 = experiment: NCI five-dose screen, A498; type: cell-based; conditions: Homo sapiens
ACHN = experiment: NCI five-dose screen, ACHN; type: cell-based; conditions: Homo sapiens
CAKI-1 = experiment: NCI five-dose screen, CAKI-1; type: cell-based; conditions: Homo sapiens
RXF 393 = experiment: NCI five-dose screen, RXF 393; type: cell-based; conditions: Homo sapiens
SN12C = experiment: NCI five-dose screen, SN12C; type: cell-based; conditions: Homo sapiens
TK-10 = experiment: NCI five-dose screen, TK-10; type: cell-based; conditions: Homo sapiens
UO-31 = experiment: NCI five-dose screen, UO-31; type: cell-based; conditions: Homo sapiens
PC-3 = experiment: NCI five-dose screen, PC-3; type: cell-based; conditions: Homo sapiens
DU-145 = experiment: NCI five-dose screen, DU-145; type: cell-based; conditions: Homo sapiens
MCF7 = experiment: NCI five-dose screen, MCF7; type: cell-based; conditions: Homo sapiens
MDA-MB-231/ATCC = experiment: NCI five-dose screen, MDA-MB-231/ATCC; type: cell-based; conditions: Homo sapiens
HS 578T = experiment: NCI five-dose screen, HS 578T; type: cell-based; conditions: Homo sapiens
BT-549 = experiment: NCI five-dose screen, BT-549; type: cell-based; conditions: Homo sapiens
T-47D = experiment: NCI five-dose screen, T-47D; type: cell-based; conditions: Homo sapiens, T47D
MDA-MB-468 = experiment: NCI five-dose screen, MDA-MB-468; type: cell-based; conditions: Homo sapiens
ovariectomized rats = experiment: Uterotrophic assay; type: in vivo, rat; conditions: 10 μg/kg BW/day s.c. for 3 days
influenza A virus H1N1 = experiment: Influenza A virus H1N1 screening, visual CPE inhibition; type: cell-based, influenza A virus H1N1 (California/07/2009)
EBOV = type: cell-based, Ebola virus; parameters: unit not given beside the values
in vitro = conditions: human

With `CC/C(=C(\c1ccc(O)cc1)c1ccc(OCCN(C)C)cc1)c1ccccc1` [Compound 4-OH-TAM, 4-hydroxytamoxifen] the AlkP activity (Ishikawa cells; 1 μM) was 1.73 ± 0.46 and the AlkP activity (Ishikawa cells; 10 μM) was 0.60 ± 0.20.

`CC/C(=C(\c1ccccc1)c1ccc(OCCN(C)C)cc1)c1ccccc1` [TAM, Tamoxifen] showed an inhibition at 10 µM (60 NCI tumor cell lines) of at least 100%, an inhibition at 10 µM (MCF-7) of at least 100% and an AlkP activity (Ishikawa cells; 1 μM) of 1.60 ± 0.55. For the same molecule, the AlkP activity (Ishikawa cells; 10 μM) was 1.02 ± 0.37, the GI50 (60 different cell lines; read-out: GI50, mean) was 4.41 µM and the GI50 (60 different cell lines; read-out: GI50, median) was 3.98 µM. It also gave a GI50 (CCRF-CEM) of 3.16 µM, a GI50 (HL-60 (TB)) of 2.51 µM and a GI50 (K-562) of 1.99 µM. For the same molecule, the GI50 (MOLT-4) was 2.51 µM, the GI50 (RPMI-8226) was 2.51 µM and the GI50 (SR) was 1.26 µM. It also gave a GI50 (A549/ATCC) of 3.98 µM, a GI50 (EKVX) of 6.31 µM and a GI50 (HOP-62) of 10 µM. For the same molecule, the GI50 (HOP-92) was 2.52 µM, the GI50 (NCI-H226) was 10 µM and the GI50 (NCI-H23) was 5.01 µM. For the same molecule, the GI50 (NCI-H322M) was 7.94 µM, the GI50 (NCI-H460) was 3.16 µM and the GI50 (NCI-H522) was 6.31 µM. It also gave a GI50 (COLO 205) of 2.15 µM, a GI50 (HCC-2998) of 3.16 µM and a GI50 (HCT-116) of 3.98 µM. For the same molecule, the GI50 (HCT-15) was 3.16 µM, the GI50 (HT29) was 2.51 µM and the GI50 (KM12) was 3.16 µM. It also gave a GI50 (SW-620) of 3.16 µM, a GI50 (SF-268) of 6.31 µM and a GI50 (SF-295) of 1.96 µM. It also gave a GI50 (SF-539) of 5.01 µM, a GI50 (SNB-19) of 6.31 µM and a GI50 (SNB-75) of 5.01 µM. For the same molecule, the GI50 (U251) was 3.16 µM, the GI50 (LOX IMVI) was 2.51 µM and the GI50 (MALME-3M) was 3.16 µM. The GI50 (M14) was 2.51 µM, the GI50 (MDA-MB-435) was 3.16 µM and the GI50 (SK-MEL-2) was 5.01 µM. It also gave a GI50 (SK-MEL-28) of 3.98 µM, a GI50 (SK-MEL-5) of 2.51 µM and a GI50 (UACC-257) of 3.16 µM. It also gave a GI50 (UACC-62) of 6.31 µM, a GI50 (IGROV1) of 5.01 µM and a GI50 (OVCAR-3) of 3.98 µM. It also gave a GI50 (OVCAR-4) of 6.31 µM, a GI50 (OVCAR-5) of 6.31 µM and a GI50 (OVCAR-8) of 7.94 µM. The GI50 (NCI/ADR-RES) was 5.01 µM, the GI50 (SK-OV-3) was 10 µM and the GI50 (786–0) was 3.98 µM. The GI50 (A498) was 6.31 µM, the GI50 (ACHN) was 6.31 µM and the GI50 (CAKI-1) was 3.98 µM. For the same molecule, the GI50 (RXF 393) was 2.51 µM, the GI50 (SN12C) was 3.98 µM and the GI50 (TK-10) was 3.98 µM. For the same molecule, the GI50 (UO-31) was 6.31 µM, the GI50 (PC-3) was 3.16 µM and the GI50 (DU-145) was 6.31 µM. It also gave a GI50 (MCF7) of 1.58 µM, a GI50 (MDA-MB-231/ATCC) of 6.31 µM and a GI50 (HS 578T) of 3.98 µM. It also gave a GI50 (BT-549) of 6.31 µM, a GI50 (T-47D) of 2.51 µM and a GI50 (MDA-MB-468) of 1.96 µM.

For `C[C@]12CC[C@@H]3c4ccc(O)cc4CC[C@H]3[C@@H]1CC[C@@H]2O` [Compound E2, 17β-estradiol], the AlkP activity (Ishikawa cells; 10 nM) was 6.86 ± 0.69 ^a and the “relative UWW, mean ± SD” value (ovariectomized rats) was 3.85 ± 0.71 g/kg BW.

For `NC(=O)c1ncn([C@@H]2O[C@H](CO)[C@@H](O)[C@H]2O)n1` [ribavirin], the EC50 (influenza A virus H1N1; Influenza A virus, H1N1, MDCK, read-out: EC50, visual CPE) was 1 µg/mL (≈ 4.09 µM) and the “SI50 (CC50/EC50)” value (influenza A virus H1N1; visual CPE) was over 320 µg/mL.

For `NC(=O)c1nc(F)c[nH]c1=O` [favipiravir], the SI90 (EBOV) was over 14 and the CC50 (in vitro) was over 1000 µg/mL.
